# Measured values from US20190367516A1 (Bayer Pharma Aktiengesellschaft, priority 2015, published 2019).
# Like-named read-outs stand apart in the source and are kept apart here.
# Key:
# [1] = target: T1, human M2 receptor (Homo sapiens, UniProt P08172); type: cell-based; settings: α >1 = positive cooperativity
# T1 sequence (P08172 1-466): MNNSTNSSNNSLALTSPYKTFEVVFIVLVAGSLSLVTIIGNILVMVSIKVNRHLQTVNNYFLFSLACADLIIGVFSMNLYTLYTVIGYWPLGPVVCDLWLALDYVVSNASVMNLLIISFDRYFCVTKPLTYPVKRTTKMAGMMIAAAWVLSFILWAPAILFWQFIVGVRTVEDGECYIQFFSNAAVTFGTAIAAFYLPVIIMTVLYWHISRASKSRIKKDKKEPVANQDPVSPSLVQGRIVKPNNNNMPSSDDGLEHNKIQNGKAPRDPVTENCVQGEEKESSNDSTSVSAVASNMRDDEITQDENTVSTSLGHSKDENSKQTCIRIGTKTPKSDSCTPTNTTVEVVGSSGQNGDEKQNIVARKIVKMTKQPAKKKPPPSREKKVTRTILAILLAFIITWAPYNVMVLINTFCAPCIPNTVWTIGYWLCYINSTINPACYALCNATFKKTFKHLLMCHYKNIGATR
# [2] = target: T1, human M2 receptor
# [3] = shift in the acetylcholine dose-response curve (Allosteric EC50 shift, GraphPad PRISM)
# [4] = Receptor activity EC50, M2-GIRK1/4 activation test, acetylcholine at EC20, allosteric potency, in some cases mean values from two or more determinations
# [5] = shift of acetylcholine dose-response curve (Allosteric EC50 shift)
# [6] = Receptor activity EC50, allosteric potency at EC20 acetylcholine, M2-GIRK1/4 reporter cells, in some cases mean of two or more determinations
# [7] = read-out: Efficiency, boosting of the acetylcholine effect at EC20 acetylcholine concentration, M2-GIRK1/4 reporter cells
SMILES,"Cooperativity (alpha factor) [1, 3]","EC50 [2, 4]",Emax ([2]; read-out: Efficiency),"Cooperativity (alpha factor) [1, 5]","EC50 [2, 6]","Emax [2, 7]"
"CC(C)(C)[C@@H](NC(=O)c1cn(-c2c(F)cc(F)cc2F)c2nc(N3C[C@@H](O)CC3=O)ccc2c1=O)C(F)(F)F [Example 357, 7-[(4S)-4-Hydroxy-2-oxopyrrolidin-1-yl]-4-oxo-N-[(2R)-1,1,1-trifluoro-3,3-dimethylbutan-2-yl]-1-(2,4,6-trifluorophenyl)-1,4-dihydro-1,8-naphthyridine-3-carboxamide]",63,4 nM,–,–,–,–
"O=C(NC12CC(C1)C2)c1cn(-c2c(F)cc(F)cc2F)c2nc(N3C[C@@H](O)CC3=O)ccc2c1=O [Example 358, N-(Bicyclo[1.1.1]pent-1-yl)-7-[(4S)-4-hydroxy-2-oxopyrrolidin-1-yl]-4-oxo-1-(2,4,6-trifluorophenyl)-1,4-dihydro-1,8-naphthyridine-3-carboxamide]",31,24 nM,–,–,–,–
"O=C(N[C@@H](C1CC1)C(F)(F)F)c1cn(-c2c(F)cc(F)cc2F)c2nc(N3CCN(CCO)C3=O)ccc2c1=O [Example 363, N-[(1 S)-1-Cyclopropyl-2,2,2-trifluoroethyl]-7-[3-(2-hydroxyethyl)-2-oxoimidazolidin-1-yl]-4-oxo-1-(2,4,6-trifluorophenyl)-1,4-dihydro-1,8-naphthyridine-3-carboxamide]",28,45 nM,–,–,–,–
"O=C(N[C@@H](C1CC1)C(F)(F)F)c1cn(-c2c(F)cc(F)cc2F)c2nc(N3CCCN(CCO)C3=O)ccc2c1=O [Example 364, N-[(1 S)-1-Cyclopropyl-2,2,2-trifluoroethyl]-7-[3-(2-hydroxyethyl)-2-oxotetrahydropyrimidin-1(2H)-yl]-4-oxo-1-(2,4,6-trifluorophenyl)-1,4-dihydro-1,8-naphthyridine-3-carboxamide]",25,16 nM,–,–,–,–
"CC[C@H](NC(=O)c1cn(-c2c(F)cc(F)cc2F)c2nc(N3CCCN(CCO)C3=O)ccc2c1=O)C(F)(F)F [Example 365, 7-[3-(2-Hydroxyethyl)-2-oxotetrahydropyrimidin-1(2H)-yl]-4-oxo-N-[(2S)-1,1,1-trifluorobutan-2-yl]-1-(2,4,6-trifluorophenyl)-1,4-dihydro-1,8-naphthyridine-3-carboxamide]",20,21 nM,–,–,–,–
"O=C(NC12CC(C1)C2)c1cn(-c2c(F)cc(F)cc2F)c2nc(N3C[C@@H](O)[C@H](O)C3)ccc2c1=O [Example 366, N-(Bicyclo[1.1.1]pent-1-yl)-7-[(3R,4R)-3,4-dihydroxypyrrolidin-1-yl]-4-oxo-1-(2,4,6-trifluorophenyl)-1,4-dihydro-1,8-naphthyridine-3-carboxamide]",36,35 nM,–,–,–,–
"CC(C)(C)[C@H](NC(=O)c1cn(-c2c(F)cc(F)cc2F)c2nc(N3C[C@@H](O)[C@H](O)C3)ccc2c1=O)C(F)(F)F [Example 369, 7-[(3R,4R)-3,4-Dihydroxypyrrolidin-1-yl]-4-oxo-N-[(2S)-1,1,1-trifluoro-3,3-dimethylbutan-2-yl]-1-(2,4,6-trifluorophenyl)-1,4-dihydro-1,8-naphthyridine-3-carboxamide]",39,8 nM,95%,–,–,–
"O=C(NC12CC(C(F)(F)F)(C1)C2)c1cn(-c2c(F)cc(F)cc2F)c2nc(N3C[C@@H](O)[C@H](O)C3)ccc2c1=O [Example 371, 7-[(3R,4R)-3,4-Dihydroxypyrrolidin-1-yl]-4-oxo-N-[3-(trifluoromethyl)bicyclo[1.1.1]pent-1-yl]-1-(2,4,6-trifluorophenyl)-1,4-dihydro-1,8-naphthyridine-3-carboxamide]",36,18 nM,–,–,–,–
"O=C(NC12CC(C(F)(F)F)(C1)C2)c1cn(-c2c(F)cc(F)cc2F)c2nc(N3C[C@@H](O)CC3=O)ccc2c1=O [Example 372, 7-[(4S)-4-Hydroxy-2-oxopyrrolidin-1-yl]-4-oxo-N-[3-(trifluoromethyl)bicyclo[1.1.1]pent-1-yl]-1-(2,4,6-trifluorophenyl)-1,4-dihydro-1,8-naphthyridine-3-carboxamide]",34,20 nM,–,–,–,–
"CC[C@H](NC(=O)c1cn(-c2c(F)cc(F)cc2F)c2nc(N3CCN/C3=N\C(=O)OC)ccc2c1=O)C(F)(F)F [Example 377, Methyl {1-[5-oxo-6-{[(2S)-1,1,1-trifluorobutan-2-yl]carbamoyl}-8-(2,4,6-trifluorophenyl)-5,8-dihydro-1,8-naphthyridin-2-yl]imidazolidin-2-ylidene}carbamate]",34,48 nM,–,–,–,–
"CN(CCO)c1ccc2c(=O)c(C(=O)N[C@@H](C3CC3)C(F)(F)F)cn(-c3c(F)cc(F)cc3F)c2n1 [Example 384, N-[(1S)-1-Cyclopropyl-2,2,2-trifluoroethyl]-7-[(2-hydroxyethyl)(methyl)amino]-4-oxo-1-(2,4,6-trifluorophenyl)-1,4-dihydro-1,8-naphthyridine-3-carboxamide]",22,28 nM,–,–,–,–
"CN(CC(=O)O)c1ccc2c(=O)c(C(=O)N[C@@H](C3CC3)C(F)(F)F)cn(-c3c(F)cc(F)cc3F)c2n1 [Example 385, N-[6-{[(1S)-1-Cyclopropyl-2,2,2-trifluoroethyl]carbamoyl}-5-oxo-8-(2,4,6-trifluorophenyl)-5,8-dihydro-1,8-naphthyridin-2-yl]-N-methylglycine]",11,68 nM,–,–,–,–
"O=C(NC12CC(C1)C2)c1cn(-c2c(F)cc(F)cc2Cl)c2nc(N3C[C@@H](O)CC3=O)ccc2c1=O [Example 396, N-(Bicyclo[1.1.1]pent-1-yl)-1-(2-chloro-4,6-difluorophenyl)-7-[(4S)-4-hydroxy-2-oxopyrrolidin-1-yl]-4-oxo-1,4-dihydro-1,8-naphthyridine-3-carboxamide]",–,–,–,29,17 nM,92%
"CC[C@H](NC(=O)c1cn(-c2c(F)cc(F)cc2Cl)c2nc(N3C[C@@H](O)CC3=O)ccc2c1=O)C(F)(F)F [Example 398, 1-(2-Chloro-4,6-difluorophenyl)-7-[(4S)-4-hydroxy-2-oxopyrrolidin-1-yl]-4-oxo-N-[(2S)-1,1,1-trifluorobutan-2-yl]-1,4-dihydro-1,8-naphthyridine-3-carboxamide]",–,–,–,26,10 nM,100%
"O=C(NC12CC(C1)C2)c1cn(-c2c(F)cc(F)cc2Cl)c2nc(N3C[C@@H](O)[C@H](O)C3)ccc2c1=O [Example 402, N-(Bicyclo[1.1.1]pent-1-yl)-1-(2-chloro-4,6-difluorophenyl)-7-[(3R,4R)-3,4-dihydroxypyrrolidin-1-yl]-4-oxo-1,4-dihydro-1,8-naphthyridine-3-carboxamide]",–,–,–,18,25 nM,97.5%
"C[C@H](NC(=O)c1cn(-c2c(F)cc(F)cc2Cl)c2nc(N3C[C@@H](O)CC3=O)ccc2c1=O)C(F)(F)F [Example 409, 1-(2-Chloro-4,6-difluorophenyl)-7-[(4S)-4-hydroxy-2-oxopyrrolidin-1-yl]-4-oxo-N-[(2S)-1,1,1-trifluoropropan-2-yl]-1,4-dihydro-1,8-naphthyridine-3-carboxamide]",–,–,–,22,19 nM,99.5%
"C[C@@H]1CN(c2ccc3c(=O)c(C(=O)N[C@@H](C4CC4)C(F)(F)F)cn(-c4c(F)cc(F)cc4F)c3n2)C(=O)N1 [Example 437, N-[(1S)-1-Cyclopropyl-2,2,2-trifluoroethyl]-7-[(4R)-4-methyl-2-oxoimidazolidin-1-yl]-4-oxo-1-(2,4,6-trifluorophenyl)-1,4-dihydro-1,8-naphthyridine-3-carboxamide]",–,–,–,29,9 nM,98.4%
"C[C@H]1CN(c2ccc3c(=O)c(C(=O)N[C@@H](C4CC4)C(F)(F)F)cn(-c4c(F)cc(F)cc4F)c3n2)C(=O)N1 [Example 449, N-[(1 S)-1-Cyclopropyl-2,2,2-trifluoroethyl]-7-[(4S)-4-methyl-2-oxoimidazolidin-1-yl]-4-oxo-1-(2,4,6-trifluorophenyl)-1,4-dihydro-1,8-naphthyridine-3-carboxamide]",–,–,–,34,15 nM,91%
"CC1(C)CN(c2ccc3c(=O)c(C(=O)N[C@@H](C4CC4)C(F)(F)F)cn(-c4c(F)cc(F)cc4F)c3n2)C(=O)N1 [Example 451, N-[(1 S)-1-Cyclopropyl-2,2,2-trifluoroethyl]-7-(4,4-dimethyl-2-oxoimidazolidin-1-yl)-4-oxo-1-(2,4,6-trifluorophenyl)-1,4-dihydro-1,8-naphthyridine-3-carboxamide]",–,–,–,21,8 nM,91%
"C[C@@H]1CN(c2ccc3c(=O)c(C(=O)NC(C)(C)C(F)F)cn(-c4c(F)cc(F)cc4F)c3n2)C(=O)N1 [Example 452, N-(1,1-Difluoro-2-methylpropan-2-yl)-7-[(4R)-4-methyl-2-oxoimidazolidin-1-yl]-4-oxo-1-(2,4,6-trifluorophenyl)-1,4-dihydro-1,8-naphthyridine-3-carboxamide]",–,–,–,25,13 nM,100%
